Data on 4 compounds can be found in US12414960B2, “Analogues of oleuropein and oleacein and uses thereof” (Attica Sciences Ltd., priority 2020, dated 2025).

The structures appear in SMILES notation.

For data set [1], the system named is MDA-MB-231 triple negative breast cancer cells. Description: XTT cell growth assay, MDA-MB-231. It counts as cell-based, human. Particulars: Homo sapiens, MDA-MB-231, 24 h, NS = not statistically significant, read-out: Effectiveness to suppress MDA-MB-231 cell growth (cell growth inhibition). The text has this: (§1) The XTT assay is used to measure cellular metabolic activity as an indicator of cell viability, proliferation and cytotoxicity. This non-radioactive, colorimetric assay system was first described by Scudiero, et al. in 1988 (Paull, Kenneth D. et al., J Heterocycl Chem, 1988, 25: 911-914; Scudiero, Dominic A. et al., Cancer Res, 1988, 48: 4827-4833) and improved in subsequent years by several other investigators (Weislow, Owen S. et al., J Natl Cancer Inst, 1989, 81(8): 577-586; Roehm, N. W. et al., J Immunol Methods, 1991, 142: 257-265).
(§2) The XTT assay is based on the reduction of a yellow tetrazolium salt (sodium 3′-[1-(phenylaminocarbonyl)-3,4-tetrazolium]-bis (4-methoxy6-nitro) benzene sulfonic acid hydrate or XTT) to an orange formazan dye by metabolically active cells (FIG. 8). The formazan dye formed is soluble in aqueous solutions and is directly quantified using a scanning multiwell spectrophotometer (ELISA reader). An increase in number of living cells results in an increase in the overall activity of mitochondrial dehydrogenases in the sample. This increase directly correlates to the amount of orange formazan formed, as monitored by the absorbance. Reduced number of living cells leads to reduced metabolism of quaternary salt and therefore reduced absorption.
(§3) Cell viability was assessed using the XTT assay kit (Roche, Mannheim, Germany) as described previously (Kouka, Paraskevi et al., Oxid Med Cell Longev. 2019, Article ID 1870965). Briefly, cancer cells per well were cultured in a 96-well plate in Dulbecco's modified Eagle's medium (DMEM). Following a 24 h incubation, 5, 10 and 50 μM of the tested GS compound was diluted in a serum-free DMEM and administered for 24 h. Subsequently, 50 μL of the XTT reagent (50:1) was added to each well. After 4 h of incubation, the absorbance was monitored at 450 nm and also at 630 nm as a reference wavelength in a BioTek ELx800 microplate reader (BioTek Instruments Inc., Winooski, VT, USA). As a negative control, samples containing serum-free DMEM only were used.
MDA-MB-231 is a human epithelial breast cancer cell line that was established from a pleural effusion of a person with a metastatic mammary adenocarcinomal and is one of the most commonly used breast cancer cell lines in medical research laboratories.
(§4) The effects of exemplary compounds on cancer cell lines and one non-tumorigenic cell line (control) were investigated using a high throughput screening assay. More specifically, the effects of the GS compounds on cell growth was evaluated by the XTT assay for cell lines HepG2, HeLa, MCF7 ER+, MDA-MB-231, and MKN-45, and by the Cell Glo luminescence assay for cell lines MIA PaCa-2, HCT-116, MCF-10A, and PANC-1.

The subject of data set [2] is HCT-116 colon cancer cells. Description: Cell Glo luminescence cell growth assay, HCT-116. Particulars: Homo sapiens, HCT-116, 24 h, NS = not statistically significant, read-out: Effectiveness to suppress HCT-116 cell growth (cell growth inhibition). The class given is cell-based, human.
Excerpt: (§5) The CellTiter-Glo® Luminescent Cell Viability Assay (Promega Corporation; Madison, WI) is a homogeneous method of determining the number of viable cells in culture based on quantitation of the ATP present, an indicator of metabolically active cells. The homogeneous assay procedure involves adding the single reagent (CellTiter-Glo® Reagent) directly to cells cultured in serum-supplemented medium. The homogeneous “add-mix-measure” format results in cell lysis and generation of a luminescent signal proportional to the amount of ATP present. The amount of ATP is directly proportional to the number of cells present in culture.
Cancer cells (3,000 cells/well) were harvested in a 96-well plate. Then, the cancer cells were treated with GS compounds and incubated for 24 hours. The MT Cell Viability Substrate, NanoLuc® Enzyme and cell culture medium was equilibrated to 37° C. The 2× RealTime-Glo™ reagent was prepared by diluting the MT Cell Viability Substrate and NanoLuc® Enzyme in 37° C. cell culture medium to a 2× concentration for each reagent. For example, 1 mL of 2× RealTime-Glo™ reagent was prepared by adding 2 μL of MT Cell Viability Substrate, 1,000×, and 2 μL of NanoLuc® Enzyme, 1,000×, to 996 μL of cell culture medium to form the 2× RealTime-Glo™ reagent. Then, an equal volume of 2× RealTime-Glo™ reagent was added to the cancer cells. The cells were kept for ˜20 minutes in the cell culture incubator and then luminescence was measured by using a plate-reading luminometer.
HCT-116 is a human colorectal cancer cell lines that has a mutation in RAS proto-oncogene.
as §4

Data set [3] has as its system HeLa cervical cancer cells. Description: XTT cell growth assay, HeLa. Conditions: Homo sapiens, HeLa, 24 h, NS = not statistically significant, read-out: Effectiveness to suppress HeLa cell growth (cell growth inhibition). The class given is cell-based, human.
Excerpt: as §1, §2, §3
HeLa is a human immortal cell line used in scientific research. It is the oldest and most commonly used human cell line. The line was derived from cervical cancer cells taken on Feb. 8, 1951 from Henrietta Lacks, a patient who died of cancer on Oct. 4, 1951.
as §4

The subject of data set [4] is MCF-7 ER+ breast cancer cells. Description: XTT cell growth assay, MCF-7 ER+. Particulars: Homo sapiens, MCF7, 24 h, NS = not statistically significant, read-out: Effectiveness to suppress MCF7 cell growth (cell growth inhibition). The class given is cell-based, human.
Excerpt: as §1, §2, §3
MCF-7 ER+ is a human breast cancer cell line isolated in 1970 from a person. Prior to MCF-7, it was not possible for cancer researchers to obtain a mammary cell line that was capable of living longer than a few months.
as §4

Another data set concerns HepG2 liver cancer cells. Description: XTT cell growth assay, HepG2. It counts as cell-based, human. Conditions: Homo sapiens, HepG2, 24 h, NS = not statistically significant, read-out: Effectiveness to suppress HepG2 cell growth (cell growth inhibition).
Excerpt: as §1, §2, §3
Hep G2 (or HepG2) is a human liver cancer cell line. Hep G2 is an immortal cell line which was derived from the liver tissue of an adolescent with a well-differentiated hepatocellular carcinoma. Hep G2 cells are a suitable in vitro model system for the study of polarized human hepatocytes.
as §4

Data set [5] in a line: ABTS radical cation scavenging assay. Conditions: NS = not statistically significant. It counts as biochemical. From the text: The method of estimating antioxidant capacity, based on the ability to interact with the ABTS.+ radical cation was first performed by Miller et al. in 1993 (Miller, Nicholas et al., Clinical Science, 1993, 84: 407-412, “A novel method for measuring the antioxidant capacity and its application to monitoring the antioxidant status in premature neonates”). The mechanism of interaction of the antioxidant agents to be examined with the ABTS.+ radical is similar to that of the DPPH. radical, which can be inactivated either by the addition of an electron or by the addition of a hydrogen atom. However, unlike the DPPH. radical, which is a stable radical from the beginning, the ABTS.+ radical must be produced by the oxidation of ABTS. Thus, in order to estimate the antioxidant capacity of a substance, the formation of the ABTS.+ radical must first precede and the addition of the substance to be examined must follow. The addition of the antioxidant agent is performed after the production of the root ABTS.+ to avoid the interaction of the antioxidant agents with the oxidizing agents used for the oxidation of ABTS.
The oxidation of ABTS takes place either through chemical reactions with various reagents or through the action of enzymes such as peroxidases. The ABTS.+ radical from the moment it is formed is stable, has a green color and absorbs at 730 nm. When a substance with antioxidant activity is added to the solution, then the ABTS.+ radical is reduced by the addition of a hydrogen (or electron) atom, resulting in reduced visual absorption.
To assess the antioxidant capacity of the samples, the oxidation of ABTS was performed enzymatically through the action of horseradish peroxidase (HRP), in the presence of H2O2 (FIG. 3)
The anti-oxidant capacity of the GS compounds was evaluated by performing the ABTS assay as previously described (Kouka, Paraskevi et al., Oxid Med Cell Longev. 2019, Article ID 1870965). Briefly, in a total reaction volume of 1 mL in distilled water (dH2O), ABTS.^+ (1 mM), H2O2 (30 μM), and horseradish peroxidase (HRP) (6 μM) in 50 mM phosphate-buffered saline were added. The solution was incubated for 45 min at room temperature (RT) in the dark. Finally, 10 μL of the tested GS compound at various concentrations was added, and the absorbance was monitored on a Hitachi U-1900 radio beam spectrophotometer (serial no. 2023-029; Hitachi Ltd.) at 730 nm. In each experiment, a blank without the HRP was used, while the ABTS.^+ radical solution without the extract was used as the control. The RSC percentage of the tested extracts was calculated using the following equation: RSC (%)=[(ODcontrol−ODcompound)/ODcontrol]×100, where ODcontrol and OD sample are the optical density (OD) values of the control and the test sample, respectively.

Data set [6] relates to MCF-10A non-tumorigenic mammary epithelial cells. Description: Cell Glo luminescence cell growth assay, MCF-10A normal cells. The class given is cell-based, human.
Excerpt: as §5
Cancer cells (3,000 cells/well) were harvested in a 96-well plate. Then, the cancer cells were treated with GS compounds and incubated for 24 hours. The MT Cell Viability Substrate, NanoLuc® Enzyme and cell culture medium was equilibrated to 37° C. The 2× RealTime-Glo™ reagent was prepared by diluting the MT Cell Viability Substrate and NanoLuc® Enzyme in 37° C. cell culture medium to a 2× concentration for each reagent. […] The cells were kept for ˜20 minutes in the cell culture incubator and then luminescence was measured by using a plate-reading luminometer. […]
The effects of exemplary compounds on cancer cell lines and one non-tumorigenic cell line (control) were investigated using a high throughput screening assay. More specifically, the effects of the GS compounds on cell growth was evaluated by the XTT assay for cell lines HepG2, HeLa, MCF7 ER+, MDA-MB-231, and MKN-45, and by the Cell Glo luminescence assay for cell lines MIA PaCa-2, HCT-116, MCF-10A, and PANC-1. […]
The effect of GS27 on normal cell growth was evaluated using the MCF-10A cell line. […]
GS27, NDI-091143 and Nexletol (10 μM) were used to treat normal epithelial cells MCF-10A cells. […] Forty-eight hours post-treatment, the growth of MCF-10A cells was evaluated by CellTiter-Glo® Luminescent Cell Viability Assay, as discussed in Example 29.

Data set [7] has as its system MKN-45 gastric cancer cells. Description: XTT cell growth assay, MKN-45. The class given is cell-based, human. Particulars: Homo sapiens, MKN-45, 24 h, NS = not statistically significant, read-out: Effectiveness to suppress MKN-45 cell growth (cell growth inhibition).
Excerpt: as §1, §2, §3
MKN-45 is a human gastric adenocarcinoma, established from the poorly differentiated adenocarcinoma of the stomach (medullary type) of a person.
as §4

Data set [8] is described as follows: Deoxyribose degradation assay (hydroxyl radical scavenging). The class given is biochemical. Conditions: NS = not statistically significant. As for the experimental part:
The hydroxyl radical (OH.) is an extremely reactive in biological systems and has been implicated as highly damaging species in free radical pathology, capable of damaging biomolecules of the living cells. These radical combines with nucleotides in DNA and cause strand breakage leading to carcinogenesis, mutagenesis and cytotoxicity. Hydroxyl radical (OH.) scavenging capacity of an extract is directly related to its antioxidant activity.
The effect of extracts on hydroxyl radicals was assayed by using the deoxyribose method. 2-Deoxyribose is degraded on exposure to hydroxyl radicals generated by Fenton's reaction. The ability to neutralize the OH. is estimated as the rate of inhibition of the oxidation of 2-deoxyribose by the OH. (FIG. 5).
The measurement of the hydroxyl radical scavenging activity was evaluated for each of the GS compound by evaluating the pink chromogen absorption at 532 nm by spectrophotometry as described previously (Perjesi, Pal et al., Open Med Chem J., 2011, 5: 61-67

Turning to `C/C=C1/[C@H](OC2OC(CO)C(O)C(O)C2O)OC=C(C(=O)O)[C@H]1CC(=O)OCCc1cccc(O)c1` (stereo in doubt) [GS14, (2S,4S,E)-3-ethylidene-4-(2-(3-hydroxyphenethoxy)-2-oxoethyl)-2-{[(2R,3S,4R,5R,6S)-3,4,5-trihydroxy-6-(hydroxymethyl)tetrahydro-2H-pyran-2-yl]oxy}-3,4-dihydro-2H-pyran-5-carboxylic acid], the inhibition at 50 µM in data set [1] was 38.2%; in data set [3], 29.5%; in [4], 28.4%; in the data set with HepG2 liver cancer cells it was 10%. In addition, in [2], the inhibition at 1 µM is 26.4%. The “ABTS Radical Cation Scavenging Assay IC50” value in [5] is recorded as 66 μg extract/mL.

Take `C/C=C(/C=O)[C@@H](CC=O)CC(=O)OC` [GS16, (3S,4E)-4-Formyl-3-(2-oxoethyl)hex-4-enoic acid methyl ester]: the inhibition at 50 µM was 35% in data set [1], 72.6% in data set [3] and 26.6% in [4]. Besides, the inhibition at 10 µM in [6] (Homo sapiens, MCF-10A, 10 uM, 24 h, normal cells, safety control, NS = not statistically significant, read-out: Effectiveness to suppress MCF10A cell growth (cell growth inhibition)) is 10.1%.

Regarding `C/C=C(/C=O)[C@@H](CC=O)CC(=O)OCCc1cccc(O)c1` [GS20, (3S,4E)-4-formyl-3-(2-oxoethyl)-4-hexenoic acid 3-hydroxyphenethyl ester], the inhibition at 50 µM is 56.4% in data set [1]; 84.1% in data set [7]; 56.4% in data set [3]; 36.1% in data set [4]; 50% in the data set on HepG2 liver cancer cells. In addition, the “Deoxyribose Degradation Assay IC50” value in data set [8] is 20 μg extract/mL. Moreover, the “ABTS Radical Cation Scavenging Assay IC50” value in [5] was determined as 50.2 μg extract/mL.

`CC(C)(CCCCCC(O)CCCCCC(C)(C)C(=O)O)C(=O)O` [Nexletol, reference compound]: the “effect on MCF-10A normal cell growth” value in data set [6] (10 μM, forty-eight hours post-treatment) is on record as “inhibitory effect”.
